Patent publication US20100316529A1, “Anti-Microbial Systems and Methods” (priority 2001, published 2010)
“And” between values parts separate entries of the source, which are not always exact repeats. Identical values can stand only once.

Assays:
Format in all cases: cell-based
E. coli = experiment: EDTA salt dilution test, MIC/MBC; settings: three entries
Procedure: (§1) Protocol one: Broth dilutions:
(§2) Inoculate a 25 ml nutrient broth (Oxoid No2) in a sterile universal container with one of the following organisms; Pseudomonas aeruginosa, Proteus Mirabilis, E. coli, Klebsiella pneumoniae, Staph aureus, Coagulase negative staphylococci, Enterococcus faecalis or MRSA.
(§3) Incubate the broth at 37° C. overnight.
(§4) To make these concentrations put the EDTA needed for 10 mLs in only 9 mLs of broth in sterile universal containers, as this will be diluted further when the organisms are added.
(§5) Dilute the overnight broth cultures to 10^7 organisms/mL using more sterile nutrient broth.
(§6) Add 1 mL of this diluent to each of the EDTA series broths. This gives a final concentration of 10^6 organism/mL in the EDTA broths.
(§7) Incubate for 18 hours at 37° C.
(§8) Next day visually read the MIC's by observing the turbidity of the broths.
(§9) Plate out 1 uL of each dilution onto fresh blood agar plate and spread using a sterile plastic spreader.
(§10) Incubate overnight at 37° C.
(§11) Next day read the MBC's by performing colony counts.

Ent. faecalis = experiment: EDTA salt dilution test, MIC/MBC
Procedure: as §1, §2, §3, §4, §5, §6, §7, §8, §9, §10, §11

Kleb. pnemoniae = experiment: EDTA salt dilution test, MIC/MBC; settings: two entries
Procedure: as §1, §2, §3, §4, §5, §6, §7, §8, §9, §10, §11

MRSA = experiment: EDTA salt dilution test, MIC/MBC; settings: five entries
Procedure: as §1, §2, §3, §4, §5, §6, §7, §8, §9, §10, §11

Proteus mirabilis = experiment: EDTA salt dilution test, MIC/MBC; settings: two entries
Procedure: as §1, §2, §3, §4, §5, §6, §7, §8, §9, §10, §11

Pseudomonas aeruginosa = experiment: EDTA salt dilution test, MIC/MBC; settings: two entries
Procedure: as §1, §2, §3, §4, §5, §6, §7, §8, §9, §10, §11

Pseudomonas sp. = experiment: EDTA salt dilution test, MIC/MBC
Procedure: as §1, §2, §3, §4, §5, §6, §7, §8, §9, §10, §11

S. aureus = experiment: EDTA salt dilution test, MIC/MBC; settings: five entries
Procedure: as §1, §2, §3, §4, §5, §6, §7, §8, §9, §10, §11

S. capitis = experiment: EDTA salt dilution test, MIC/MBC; settings: two entries
Procedure: as §1, §2, §3, §4, §5, §6, §7, §8, §9, §10, §11

S. epidermidis = experiment: EDTA salt dilution test, MIC/MBC; settings: two entries
Procedure: as §1, §2, §3, §4, §5, §6, §7, §8, §9, §10, §11

S. lentus = experiment: EDTA salt dilution test, MIC/MBC
Procedure: as §1, §2, §3, §4, §5, §6, §7, §8, §9, §10, §11

S. simulans = experiment: EDTA salt dilution test, MIC/MBC
Procedure: as §1, §2, §3, §4, §5, §6, §7, §8, §9, §10, §11

S. xylosus = experiment: EDTA salt dilution test, MIC/MBC
Procedure: as §1, §2, §3, §4, §5, §6, §7, §8, §9, §10, §11

VRE = experiment: EDTA salt dilution test, MIC/MBC; settings: two entries
Procedure: as §1, §2, §3, §4, §5, §6, §7, §8, §9, §10, §11

Ent. faeculm = experiment: EDTA salt dilution test, MIC/MBC
Kleb. oxytoca = experiment: EDTA salt dilution test, MIC/MBC
Kleb. ornitholytica = experiment: EDTA salt dilution test, MIC/MBC
Ent. cloacae = experiment: EDTA salt dilution test, MIC/MBC; settings: three entries
Steno. maltophilia = experiment: EDTA salt dilution test, MIC/MBC
Cornyeform amycolatum = experiment: EDTA salt dilution test, MIC/MBC
Coryneform strait/amy = experiment: EDTA salt dilution test, MIC/MBC
Acinetobacter baumanii = experiment: EDTA salt dilution test, MIC/MBC; settings: two entries, Exhibit A2
Proteus vulgaris = experiment: EDTA salt dilution test, MIC/MBC
C. lucitaniae = experiment: EDTA agar dilution method, yeasts, MIC/MBC; settings: Exhibit C
Source text: (§12) Protocol 3: Agar dilutions.
Do this until all the media is used up.

C. albicans = experiment: EDTA agar dilution method, yeasts, MIC/MBC; settings: three entries, Exhibit C
Procedure: (§13) The bactericidal effects were measured as the Minimum Bactericidal Concentration (MBC), while the inhibitory effects were measured as the Minimum Inhibitory Concentration (MIC). In each case, the concentration was measured as milligrams of the disinfectant salt per milliliter of water (mg/ml).
as §12
(§14) Prepare nutrient agar plates with increasing concentrations of EDTA, 0, 0.5, 1, 1.5, 2, 4, 6, 8, 10, 15, 20, 25, 30 mg/mL, using the following method. • Pour 300 mL distilled water into a sterile glass bottle. • Add the appropriate amount of EDTA. This is the concentration desired ×300, in grams. • Once the EDTA has fully dissolved, add 8.4 g of Nutrient agar powder (Oxoid). Mix thoroughly. • Do this for each concentration of EDTA required. […] Do this until all the media is used up. Label the plates with the concentration of EDTA they contain. • These plates can then be stored, until they are needed, in a 4° C. fridge. • Use an automatic plate inoculator to inoculate each plate with 21 organisms.

C. glabrata = experiment: EDTA agar dilution method, yeasts, MIC/MBC; settings: two entries, Exhibit C
Procedure: as §13, §12, §14

C. guilliermondii = experiment: EDTA agar dilution method, yeasts, MIC/MBC; settings: Exhibit C
Procedure: as §13, §12, §14

C. parapsilosis = experiment: EDTA agar dilution method, yeasts, MIC/MBC; settings: Exhibit C
Procedure: as §13, §12, §14

C. tropicalis = experiment: EDTA agar dilution method, yeasts, MIC/MBC; settings: Exhibit C
Procedure: as §13, §12, §14

variety of microbes = experiment: Efficacy of disinfectant salts of EDTA against a number of microbes; settings: general statement
Procedure: The Applicant has tested the efficacy of a number of disinfectant salts of EDTA against a number of microbes.
as §1, §2, §3
Next day make up a series of nutrient broths containing a dilution of the appropriate EDTA as in the following list; 0 mg/mL, 0.25 mg/mL, 0.5 mg/mL, 1.0 mg/mL, 1.5 mg/mL, 2.0 mg/mL, 4.0 mg/mL, 6.0 mg/mL, 8.0 mg/mL, 10 mg/mL, 15 mg/mL, 20 mg/mL, 25 mg/mL, 30 mg/ml, 40 mg/mL, 50 mg/mL, 60 mg/mL, 70 mg/mL, 80 mg/mL, 90 mg/mL, 100 mg/mL.
as §4, §5, §6, §7
Next day visually read the MIC's by observing the turbidity of the broths. […]
as §11

O=C([O-])CN(CCN(CC(=O)O)CC(=O)O)CC(=O)[O-].[K+].[K+] [Dipotassium EDTA]
MBC, minimum concentration required to kill an entire population (E. coli; Exhibit A1): >15000 µg/mL and 15000 µg/mL
MIC, minimum concentration required to inhibit growth (E. coli; Exhibit A2): 1000 µg/mL
MBC, minimum concentration required to kill an entire population (Ent. faecalis; Exhibit A1): 15000 µg/mL
MIC, minimum concentration required to inhibit growth (Ent. faecalis; Exhibit A2): 1000 µg/mL
MBC, minimum concentration required to kill an entire population (Kleb. pnemoniae; Exhibit A1): 15000 µg/mL
MIC, minimum concentration required to inhibit growth (Kleb. pnemoniae; Exhibit A2): 1500 µg/mL and 1000 µg/mL
MBC, minimum concentration required to kill an entire population (MRSA; Exhibit A1): 6000 µg/mL and 10000 µg/mL and 8000 µg/mL
MIC, minimum concentration required to inhibit growth (MRSA; Exhibit A2): 1000 µg/mL
MBC, minimum concentration required to kill an entire population (Proteus mirabilis; Exhibit A1): >15000 µg/mL and 15000 µg/mL
MIC, minimum concentration required to inhibit growth (Proteus mirabilis; Exhibit A2): <500 µg/mL
MBC, minimum concentration required to kill an entire population (Pseudomonas aeruginosa; Exhibit A1): >15000 µg/mL
MIC, minimum concentration required to inhibit growth (Pseudomonas aeruginosa; Exhibit A2): 1000 µg/mL
MBC, minimum concentration required to kill an entire population (Pseudomonas sp.; Exhibit A1): 15000 µg/mL
MIC, minimum concentration required to inhibit growth (Pseudomonas sp.; Exhibit A2): 1000 µg/mL
MBC, minimum concentration required to kill an entire population (S. aureus; Exhibit A1): 6000 µg/mL and 8000 µg/mL
MIC, minimum concentration required to inhibit growth (S. aureus; Exhibit A2): 1000 µg/mL
MBC, minimum concentration required to kill an entire population (S. capitis; Exhibit A1): 8000 µg/mL and 10000 µg/mL
MIC, minimum concentration required to inhibit growth (S. capitis; Exhibit A2): <500 µg/mL
MBC, minimum concentration required to kill an entire population (S. epidermidis; Exhibit A1): 8000 µg/mL
MIC, minimum concentration required to inhibit growth (S. epidermidis; Exhibit A2): <500 µg/mL
MBC, minimum concentration required to kill an entire population (S. lentus; Exhibit A1): 10000 µg/mL
MIC, minimum concentration required to inhibit growth (S. lentus; Exhibit A2): <500 µg/mL
MBC, minimum concentration required to kill an entire population (S. simulans; Exhibit A1): 8000 µg/mL
MIC, minimum concentration required to inhibit growth (S. simulans; Exhibit A2): <500 µg/mL
MBC, minimum concentration required to kill an entire population (S. xylosus; Exhibit A1): 6000 µg/mL
MIC, minimum concentration required to inhibit growth (S. xylosus; Exhibit A2): <500 µg/mL
MBC, minimum concentration required to kill an entire population (VRE; Exhibit A1): 8000 µg/mL
MIC, minimum concentration required to inhibit growth (VRE; Exhibit A2): <500 µg/mL and 1000 µg/mL
MIC, minimum concentration required to inhibit growth (Ent. faeculm; Ent. faecuim, Exhibit A2): <500 µg/mL
MBC, minimum concentration required to kill an entire population (Ent. faeculm; Ent. faeculm, Exhibit A1): 8000 µg/mL
MBC, minimum concentration required to kill an entire population (Kleb. oxytoca; Exhibit A1): 15000 µg/mL
MIC, minimum concentration required to inhibit growth (Kleb. oxytoca; Exhibit A2): 1000 µg/mL
MBC, minimum concentration required to kill an entire population (Kleb. ornitholytica; Exhibit A1): >15000 µg/mL
MIC, minimum concentration required to inhibit growth (Kleb. ornitholytica; Exhibit A2): 1000 µg/mL
MBC, minimum concentration required to kill an entire population (Ent. cloacae; Exhibit A1): 15000 µg/mL and >15000 µg/mL
MIC, minimum concentration required to inhibit growth (Ent. cloacae; Exhibit A2): 4000 µg/mL and 6000 µg/mL
MBC, minimum concentration required to kill an entire population (Steno. maltophilia; Exhibit A1): 10000 µg/mL
MIC, minimum concentration required to inhibit growth (Steno. maltophilia; Exhibit A2): <500 µg/mL
MBC, minimum concentration required to kill an entire population (Cornyeform amycolatum; Exhibit A1): <500 µg/mL
MIC, minimum concentration required to inhibit growth (Cornyeform amycolatum; Exhibit A2): <500 µg/mL
MBC, minimum concentration required to kill an entire population (Coryneform strait/amy; Exhibit A1): <500 µg/mL
MIC, minimum concentration required to inhibit growth (Coryneform strait/amy; Exhibit A2): <500 µg/mL
MIC, minimum concentration required to inhibit growth (Acinetobacter baumanii): <500 µg/mL
MBC, minimum concentration required to kill an entire population (Proteus vulgaris; Exhibit A1): >15000 µg/mL
MIC, minimum concentration required to inhibit growth (Proteus vulgaris; Exhibit A2): 1000 µg/mL
MIC's, Minimum Inhibitory Concentration (C. lucitaniae): 500 µg/mL
MIC's, Minimum Inhibitory Concentration (C. albicans): 500 µg/mL
MIC's, Minimum Inhibitory Concentration (C. glabrata): 500 µg/mL
MIC's, Minimum Inhibitory Concentration (C. guilliermondii): 500 µg/mL
MIC's, Minimum Inhibitory Concentration (C. parapsilosis): 500 µg/mL
MIC's, Minimum Inhibitory Concentration (C. tropicalis): 1000 µg/mL
anti-microbial (antifungal and antibacterial) properties compared with the disodium salt (variety of microbes): superior to disodium EDTA
